Experimental data taken from US20040106626A1, “6-Membered unsaturated heterocyclic compounds useful for selective inhibition of the coagulation cascade” (Pharmacia Corporation, priority 2001, published 2004).

Columns and labels:
Type in all cases: biochemical
[1] = biological target: T1, recombinant soluble tissue factor and recombinant human factor VIIa (TF-VIIa) (Homo sapiens, UniProt P08709); experiment: TF-VIIa assay (chromogenic substrate hydrolysis); conditions: reported only as less than or greater than 0.1 uM
T1 construct: conversion of coagulation factor VII to VIIa by factor Xa; purchased American Diagnostica, Greenwich CT; host or cells: soluble TF made in house in E. coli
In short: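 Chromogenic read at OD405, compared with control for percent inhibition. Substrate N-methylsulfonyl-D-phe-gly-arg-p-nitroaniline at 0.4 mM is cleaved by recombinant human VIIa (2 nM) complexed with soluble TF (100 nM). Buffer: pH 8.0 Tris-HCl 50 mM, CaCl2 5 mM, NaCl 100 mM, BSA 0.1%.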

Human factor Xa = biological target: T2, Human factor Xa (Homo sapiens, UniProt P00742); experiment: Xa assay (chromogenic substrate S-2765); conditions: reported only as less than or greater than 30 uM; read-out: Factor Xa (II) IC50
T2 construct: purchased Enzyme Research Laboratories, South Bend Ind
In short: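 Chromogenic readout: S-2765 hydrolysis (0.15 mM) by 0.3 nM human FXa was monitored at 405 nm after 60 min at room temperature, with a time-zero background read. Buffer: 50 mM Tris-HCl, pH 8.0, 100 mM NaCl, 0.1% BSA. Inhibition is relative to buffer-only controls.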

[2] = system: Normal human pooled plasma; experiment: Prothrombin time (PT) clotting assay; conditions: concentration at which prothrombin time is prolonged by 2x normal, reported as less than or greater than 50 uM
In short: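 Normal human pooled plasma incubated with 100 uM compound or saline, then thromboplastin (human tissue factor) added and clotting time recorded in a coagulation machine. Compounds exceeding 3× normal PT (11.0 s) are titrated to find the concentration doubling PT.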

Human thrombin = biological target: T3, Human thrombin (Homo sapiens, UniProt P00734); experiment: Thrombin assay (chromogenic substrate); conditions: reported only as less than or greater than 30 uM; read-out: Thrombin (II) IC50
T3 construct: converts prothrombin (II) to thrombin (IIa); purchased Calbiochem, La Jolla, Calif
In short: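 Percent inhibition derived by comparing OD405 nm of compound-treated and control samples. Thrombin cleavage of a p-nitroanilide chromogenic substrate provides the signal.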

T2 sequence (P00742 235-488 limits assumed): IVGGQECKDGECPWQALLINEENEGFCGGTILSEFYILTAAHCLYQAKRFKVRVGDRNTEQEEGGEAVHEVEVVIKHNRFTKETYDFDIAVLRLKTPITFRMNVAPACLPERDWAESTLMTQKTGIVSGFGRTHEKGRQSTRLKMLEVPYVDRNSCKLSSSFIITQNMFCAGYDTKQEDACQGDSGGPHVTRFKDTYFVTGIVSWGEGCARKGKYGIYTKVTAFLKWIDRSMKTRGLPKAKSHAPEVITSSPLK
T2 sequence (P00742 41-179 limits assumed): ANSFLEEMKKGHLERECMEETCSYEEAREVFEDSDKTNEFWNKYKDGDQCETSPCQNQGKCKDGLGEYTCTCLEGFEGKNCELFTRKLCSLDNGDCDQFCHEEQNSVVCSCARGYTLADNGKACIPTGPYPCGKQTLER
T1 sequence (P08709 213-466 limits assumed): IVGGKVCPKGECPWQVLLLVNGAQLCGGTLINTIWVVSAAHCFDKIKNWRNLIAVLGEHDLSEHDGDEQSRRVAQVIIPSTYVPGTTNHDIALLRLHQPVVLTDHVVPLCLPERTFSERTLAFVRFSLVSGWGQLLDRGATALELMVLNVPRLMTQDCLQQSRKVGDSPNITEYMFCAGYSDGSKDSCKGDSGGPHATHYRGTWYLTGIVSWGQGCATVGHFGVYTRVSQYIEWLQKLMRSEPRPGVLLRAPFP
T1 sequence (P08709 61-212 limits assumed): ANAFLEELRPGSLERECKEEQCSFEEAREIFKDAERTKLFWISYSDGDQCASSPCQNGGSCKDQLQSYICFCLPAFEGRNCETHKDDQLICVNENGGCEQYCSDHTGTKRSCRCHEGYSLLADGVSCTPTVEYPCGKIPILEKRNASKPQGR
T1 sequence (P13726 33-251 partner limits assumed): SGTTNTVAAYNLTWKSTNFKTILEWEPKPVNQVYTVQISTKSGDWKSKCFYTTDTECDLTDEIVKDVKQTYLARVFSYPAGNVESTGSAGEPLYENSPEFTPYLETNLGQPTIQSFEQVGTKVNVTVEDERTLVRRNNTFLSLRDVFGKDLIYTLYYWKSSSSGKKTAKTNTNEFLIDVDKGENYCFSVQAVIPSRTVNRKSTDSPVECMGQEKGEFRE

CC[C@H](C)NC(=O)c1cc(N)cc(-c2cnc(N[C@@H](C)CC)c(=O)n2CC(=O)NCc2ccc(C(=N)N)cc2)c1.O=C(O)C(F)(F)F.O=C(O)C(F)(F)F [Example 191]
IC50 [1]: < 0.1 µM
IC50 (Human factor Xa): > 30 µM
PT (Prothrombin time) 2xPT [2]: <50.0 µM
IC50 (Human thrombin): < 30 µM

CCCNc1ncc(-c2cc(N)cc(C(=O)N[C@@H](C)CC)c2)n(CC(=O)NCc2ccc(C(=N)N)cc2)c1=O.O=C(O)C(F)(F)F.O=C(O)C(F)(F)F [Example 192]
IC50 [1]: < 0.1 µM
IC50 (Human factor Xa): > 30 µM
PT (Prothrombin time) 2xPT [2]: <50.0 µM
IC50 (Human thrombin): < 30 µM

CC[C@H](C)NC(=O)c1cc(N)cc(-c2cnc(NC(C)C)c(=O)n2CC(=O)NCc2c(O)cc(C(=N)N)cc2O)c1 [Example 193]
IC50 [1]: > 0.1 µM
IC50 (Human factor Xa): > 30 µM
PT (Prothrombin time) 2xPT [2]: <50.0 µM
IC50 (Human thrombin): > 30 µM

CCNc1ncc(-c2cc(N)cc(C(=O)N[C@@H](C)CC)c2)n(CC(=O)NCc2ccc(C(=N)N)cc2)c1=O.O=C(O)C(F)(F)F.O=C(O)C(F)(F)F [Example 194]
IC50 [1]: < 0.1 µM
IC50 (Human factor Xa): > 30 µM
PT (Prothrombin time) 2xPT [2]: <50.0 µM
IC50 (Human thrombin): > 30 µM

CC[C@H](C)NC(=O)c1cc(N)cc(-c2cnc(NC(C)C)c(=O)n2CC(=O)NCc2c(O)cc(C(=N)N)cc2OC)c1 [Example 195]
IC50 [1]: < 0.1 µM
IC50 (Human factor Xa): > 30 µM
PT (Prothrombin time) 2xPT [2]: <50.0 µM
IC50 (Human thrombin): > 30 µM

CC[C@@H](C)NC(=O)c1cc(N)cc(-c2cnc(NC(C)C)c(=O)n2CC(=O)NCc2c(O)cc(C(=N)N)cc2OC)c1 [Example 198]
IC50 [1]: < 0.1 µM
IC50 (Human factor Xa): > 30 µM
PT (Prothrombin time) 2xPT [2]: <50.0 µM
IC50 (Human thrombin): > 30 µM

CC[C@@H](C)NC(=O)c1cc(N)cc(-c2cnc(NC(C)C)c(=O)n2CC(=O)NCc2c(O)cc(C(=N)N)cc2O)c1 [Example 199]
IC50 [1]: < 0.1 µM
IC50 (Human factor Xa): > 30 µM
PT (Prothrombin time) 2xPT [2]: <50.0 µM
IC50 (Human thrombin): > 30 µM

CC[C@H](C)NC(=O)c1cc(N)cc(-c2cnc(N[C@H](C)C(C)C)c(=O)n2CC(=O)NCc2ccc(C(=N)N)cc2)c1.O=C(O)C(F)(F)F.O=C(O)C(F)(F)F [Example 202]
IC50 [1]: < 0.1 µM
IC50 (Human factor Xa): > 30 µM
PT (Prothrombin time) 2xPT [2]: <50.0 µM
IC50 (Human thrombin): < 30 µM

CC[C@@H](C)Nc1ncc(-c2cc(N)cc(C(=O)N[C@@H](C)CC)c2)n(CC(=O)NCc2ccc(C(=N)N)cc2)c1=O.O=C(O)C(F)(F)F.O=C(O)C(F)(F)F [Example 203]
IC50 [1]: < 0.1 µM
IC50 (Human factor Xa): > 30 µM
PT (Prothrombin time) 2xPT [2]: <50.0 µM
IC50 (Human thrombin): < 30 µM

N=C(N)c1ccc(CNC(=O)Cn2c(-c3cc(N)cc(C(=O)O)c3)cnc(NC3CC3)c2=O)cc1.O=C(O)C(F)(F)F [Example 204, 3-amino-5-[1-[2-({4-[amino(imino)methyl]benzyl}amino)-2-oxoethyl]-5-(cyclopropylamino)-6-oxo-1,6-dihydropyrazin-2-yl]benzoic Acid]
IC50 [1]: < 0.1 µM
IC50 (Human factor Xa): > 30 µM
PT (Prothrombin time) 2xPT [2]: <50.0 µM
IC50 (Human thrombin): > 30 µM

CCOC(=O)c1cc(N)cc(-c2cnc(NC3CC3)c(=O)n2CC(=O)NCc2ccc(C(=N)N)cc2)c1.O=C(O)C(F)(F)F [Example 207, Ethyl 3-amino-5-[1-[2-({4-[amino(imino)methyl]benzyl}amino)-2-oxoethyl]-5-(cyclopropylamino)-6-oxo-1,6-dihydropyrazin-2-yl]benzoate]
IC50 [1]: < 0.1 µM
IC50 (Human factor Xa): > 30 µM
PT (Prothrombin time) 2xPT [2]: <50.0 µM
IC50 (Human thrombin): > 30 µM

CCC(CC)COc1cc(N)cc(-c2cnc(NC(C)C)c(=O)n2CC(=O)NCc2ccc(C(=N)N)cc2)c1.O=C(O)C(F)(F)F.O=C(O)C(F)(F)F [Example 209]
IC50 [1]: < 0.1 µM
IC50 (Human factor Xa): > 30 µM
PT (Prothrombin time) 2xPT [2]: 50 µM
IC50 (Human thrombin): > 30 µM

CC(C)Nc1ncc(-c2cc(N)cc(OCCc3ccccc3)c2)n(CC(=O)NCc2ccc(C(=N)N)cc2)c1=O.O=C(O)C(F)(F)F.O=C(O)C(F)(F)F [Example 211]
IC50 [1]: < 0.1 µM
IC50 (Human factor Xa): > 30 µM
PT (Prothrombin time) 2xPT [2]: <50.0 µM
IC50 (Human thrombin): > 30 µM

CC(C)Nc1ncc(-c2cc(N)cc(OC3CCCC3)c2)n(CC(=O)NCc2ccc(C(=N)N)cc2)c1=O.O=C(O)C(F)(F)F.O=C(O)C(F)(F)F [Example 212]
IC50 [1]: < 0.1 µM
IC50 (Human factor Xa): > 30 µM
PT (Prothrombin time) 2xPT [2]: <50.0 µM
IC50 (Human thrombin): > 30 µM

CC(C)Nc1ncc(-c2cc(N)cc(OCC(C)(C)N(C)C)c2)n(CC(=O)NCc2ccc(C(=N)N)cc2)c1=O.O=C(O)C(F)(F)F.O=C(O)C(F)(F)F [Example 213]
IC50 [1]: < 0.1 µM
IC50 (Human factor Xa): > 30 µM
PT (Prothrombin time) 2xPT [2]: <50.0 µM
IC50 (Human thrombin): > 30 µM

CC(C)CCOc1cc(N)cc(-c2cnc(NC(C)C)c(=O)n2CC(=O)NCc2ccc(C(=N)N)cc2)c1.O=C(O)C(F)(F)F.O=C(O)C(F)(F)F [Example 214]
IC50 [1]: < 0.1 µM
IC50 (Human factor Xa): > 30 µM
PT (Prothrombin time) 2xPT [2]: <50.0 µM
IC50 (Human thrombin): > 30 µM

CC(C)Nc1ncc(-c2cc(N)cc(OCCC(C)(C)C)c2)n(CC(=O)NCc2ccc(C(=N)N)cc2)c1=O.O=C(O)C(F)(F)F.O=C(O)C(F)(F)F [Example 215]
IC50 [1]: < 0.1 µM
IC50 (Human factor Xa): > 30 µM
PT (Prothrombin time) 2xPT [2]: <50.0 µM
IC50 (Human thrombin): > 30 µM

CC(C)Nc1ncc(-c2cc(N)cc(OC(C)C)c2)n(CC(=O)NCc2ccc(C(=N)N)cc2)c1=O.O=C(O)C(F)(F)F.O=C(O)C(F)(F)F [Example 216]
IC50 [1]: < 0.1 µM
IC50 (Human factor Xa): > 30 µM
PT (Prothrombin time) 2xPT [2]: <50.0 µM
IC50 (Human thrombin): > 30 µM

CC(C)Nc1ncc(-c2cc(N)cc(OCC(C)(C)CN(C)C)c2)n(CC(=O)NCc2ccc(C(=N)N)cc2)c1=O.O=C(O)C(F)(F)F.O=C(O)C(F)(F)F [Example 217]
IC50 [1]: < 0.1 µM
IC50 (Human factor Xa): > 30 µM
PT (Prothrombin time) 2xPT [2]: <50.0 µM
IC50 (Human thrombin): < 30 µM

CC(C)Nc1ncc(-c2cc(N)cc(OC3Cc4ccccc4C3)c2)n(CC(=O)NCc2ccc(C(=N)N)cc2)c1=O.O=C(O)C(F)(F)F.O=C(O)C(F)(F)F [Example 218]
IC50 [1]: < 0.1 µM
IC50 (Human factor Xa): > 30 µM
PT (Prothrombin time) 2xPT [2]: <50.0 µM
IC50 (Human thrombin): > 30 µM

COCCOc1cc(N)cc(-c2cnc(NC(C)C)c(=O)n2CC(=O)NCc2ccc(C(=N)N)cc2)c1.O=C(O)C(F)(F)F.O=C(O)C(F)(F)F [Example 219]
IC50 [1]: < 0.1 µM
IC50 (Human factor Xa): > 30 µM
PT (Prothrombin time) 2xPT [2]: <50.0 µM
IC50 (Human thrombin): > 30 µM

CC(C)Nc1ncc(-c2cc(N)cc(OCC3CCCC3)c2)n(CC(=O)NCc2ccc(C(=N)N)cc2)c1=O.O=C(O)C(F)(F)F.O=C(O)C(F)(F)F [Example 220]
IC50 [1]: < 0.1 µM
IC50 (Human factor Xa): > 30 µM
PT (Prothrombin time) 2xPT [2]: <50.0 µM
IC50 (Human thrombin): > 30 µM

CC(C)Nc1ncc(-c2cc(N)cc(OCC3CCCCC3)c2)n(CC(=O)NCc2ccc(C(=N)N)cc2)c1=O.O=C(O)C(F)(F)F.O=C(O)C(F)(F)F [Example 221]
IC50 [1]: < 0.1 µM
IC50 (Human factor Xa): > 30 µM
PT (Prothrombin time) 2xPT [2]: >50.0 µM
IC50 (Human thrombin): > 30 µM

CCCCOc1cc(N)cc(-c2cnc(NC(C)C)c(=O)n2CC(=O)NCc2ccc(C(=N)N)cc2)c1.O=C(O)C(F)(F)F.O=C(O)C(F)(F)F [Example 222]
IC50 [1]: < 0.1 µM
IC50 (Human factor Xa): > 30 µM
PT (Prothrombin time) 2xPT [2]: <50.0 µM
IC50 (Human thrombin): > 30 µM

CC(C)Nc1ncc(-c2cc(N)cc(OCC3CC3)c2)n(CC(=O)NCc2ccc(C(=N)N)cc2)c1=O.O=C(O)C(F)(F)F.O=C(O)C(F)(F)F [Example 223]
IC50 [1]: < 0.1 µM
IC50 (Human factor Xa): > 30 µM
PT (Prothrombin time) 2xPT [2]: <50.0 µM
IC50 (Human thrombin): > 30 µM

CCC(C)Oc1cc(N)cc(-c2cnc(NC(C)C)c(=O)n2CC(=O)NCc2ccc(C(=N)N)cc2)c1.O=C(O)C(F)(F)F.O=C(O)C(F)(F)F (centres unmarked) [Example 224]
IC50 [1]: < 0.1 µM
IC50 (Human factor Xa): > 30 µM
PT (Prothrombin time) 2xPT [2]: <50.0 µM
IC50 (Human thrombin): > 30 µM

CC(C)Nc1ncc(-c2cc(N)cc(OC3CCCCC3)c2)n(CC(=O)NCc2ccc(C(=N)N)cc2)c1=O.O=C(O)C(F)(F)F.O=C(O)C(F)(F)F [Example 225]
IC50 [1]: < 0.1 µM
IC50 (Human factor Xa): > 30 µM
PT (Prothrombin time) 2xPT [2]: >50.0 µM
IC50 (Human thrombin): > 30 µM

CC(C)Nc1ncc(-c2cc(N)cc(-c3nnn[nH]3)c2)n(CC(=O)NCc2ccc(C(=N)N)cc2)c1=O.O=C(O)C(F)(F)F [Example 227, N-{4-[amino(imino)methyl]benzyl}-2-[6-[3-amino-5-(1H-tetraazol-5-yl)phenyl]-3-(isopropylamino)-2-oxopyrazin-1 (2H)-yl]acetamide]
IC50 [1]: < 0.1 µM
IC50 (Human factor Xa): > 30 µM
PT (Prothrombin time) 2xPT [2]: <50.0 µM
IC50 (Human thrombin): > 30 µM

CC(C)Nc1ncc(-c2cc(N)cc(S(=O)(=O)CC(C)(C)C)c2)n(CC(=O)NCc2ccc(C(=N)N)cc2)c1=O.O=C(O)C(F)(F)F.O=C(O)C(F)(F)F [Example 228]
IC50 [1]: < 0.1 µM
IC50 (Human factor Xa): > 30 µM
PT (Prothrombin time) 2xPT [2]: <50.0 µM
IC50 (Human thrombin): > 30 µM
